For 22 molecules, IC50 and inhibition results are on record in patent US8436043B2 (Takeda Pharmaceutical Company Limited, priority 2008, dated 2013).

In the first assay the target is T1, human glucagon receptor (Homo sapiens, UniProt P47871).
T1 construct: made in house; host or cells: FreeStyle CHO cells, transient transfection with pMSRαneo/hGCGR; membrane fraction (35,000 rpm pellet)
T1 sequence (P47871 26-477): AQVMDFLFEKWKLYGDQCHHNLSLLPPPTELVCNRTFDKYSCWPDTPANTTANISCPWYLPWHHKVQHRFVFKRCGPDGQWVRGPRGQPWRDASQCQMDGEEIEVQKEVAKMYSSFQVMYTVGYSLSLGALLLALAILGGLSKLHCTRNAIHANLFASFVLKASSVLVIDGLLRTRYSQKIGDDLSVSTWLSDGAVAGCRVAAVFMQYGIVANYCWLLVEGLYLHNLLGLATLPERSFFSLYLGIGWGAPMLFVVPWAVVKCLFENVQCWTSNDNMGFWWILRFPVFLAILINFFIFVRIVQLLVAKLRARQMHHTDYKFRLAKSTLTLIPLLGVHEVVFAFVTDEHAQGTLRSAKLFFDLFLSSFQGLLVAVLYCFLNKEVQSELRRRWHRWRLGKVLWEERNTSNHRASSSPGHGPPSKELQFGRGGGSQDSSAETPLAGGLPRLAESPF
Briefly: Glucagon binding inhibitory activity ([125I]-glucagon binding to glucagon receptor membrane protein). As to conditions: human glucagon receptor membrane protein, [125I]-glucagon, 90 min room temperature. In outline: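 Receptor source was a membrane fraction of transiently transfected CHO cells bearing human receptor; 90 min room-temperature binding, filtration harvest, scintillation counting.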
On to `Cc1nn(Cc2ccccc2)cc1C(Nc1ccc(C(=O)NCCC(=O)O)cc1)C1CCCCC1` (stereo not drawn) [Example 41, 3-{[(4-{[(1-benzyl-3-methyl-1H-pyrazol-4-yl)(cyclohexyl)methyl]amino}phenyl)carbonyl]amino}propanoic acid], for which the IC50 – broadly, the point on the concentration scale where inhibition reaches its midpoint – was determined as 2300 nM.
`CN(CCC(=O)O)C(=O)c1ccc(NC(c2nn(C)c3ccccc23)C2CCCCC2)cc1` (stereo not drawn) [Example A7, 3-{[(4-{[cyclohexyl(1-methyl-1H-indazol-3-yl)methyl]amino}phenyl)carbonyl](methyl)amino}propanoic acid] displayed an IC50 of 1800 nM.

The same assay, now with this note: test compound 10 μM; 0.4% DMSO = 0%, non-labeled glucagon 1 μM = 100%; read-out: inhibitory rate (%) at 10 μM.
For the molecule `CCC(CC)C(Nc1ccc(C(=O)NCCC(=O)O)cc1)c1oc2ccc(F)cc2c1C` (stereo not drawn) [Example A191, 3-{[(4-{[2-ethyl-1-(5-fluoro-3-methyl-1-benzofuran-2-yl)butyl]amino}phenyl)carbonyl]amino}propanoic acid], the inhibition at 10 µM was 82%.
Turning to `Cc1c(C(Nc2ccc(C(=O)N(C)CCC(=O)O)cc2)C2CCCCC2)oc2ccc(Oc3ccc(C#N)cn3)cc12` (stereo not drawn) [Example A202, 3-{[(4-{[{5-[(5-cyanopyridin-2-yl)oxy]-3-methyl-1-benzofuran-2-yl}(cyclohexyl)methyl]amino}phenyl)carbonyl](methyl)amino}-propanoic acid], the inhibition at 10 µM was 86%.
As for `COc1nn(-c2ccc(OC(F)(F)F)cc2)cc1C(Nc1ccc(C(=O)NCCC(=O)O)cc1)C1CCCCC1` (stereo not drawn) [Example 62, 3-[({4-[(cyclohexyl{3-methoxy-1-[4-(trifluoromethoxy)phenyl]-1H-pyrazol-4-yl}methyl)amino]phenyl}carbonyl)amino]propanoic acid], the inhibition at 10 µM was determined as 68%.
Take `COc1c(C(Nc2ccc(C(=O)N(C)CCC(=O)O)cc2)C2CCCCC2)oc2ccc(F)cc12` (stereo not drawn) [Example A214, 3-{[(4-{[cyclohexyl(5-fluoro-3-methoxy-1-benzofuran-2-yl)methyl]amino}phenyl)carbonyl](methyl)amino}propanoic acid]: the inhibition at 10 µM amounted to 75%.
On to `COc1nn(-c2ccc(OC(F)(F)F)cc2)cc1C(Nc1ccc(C(=O)N(C)CCC(=O)O)cc1)C1CCCCC1` (stereo not drawn) [Example 63, 3-[({4-[(cyclohexyl{3-methoxy-1-[4-(trifluoromethoxy)phenyl]-1H-pyrazol-4-yl}methyl)amino]phenyl}carbonyl)(methyl)amino]propanoic acid], for which the inhibition at 10 µM was 72%.
In the case of `Cc1c(C(Nc2ccc(C(=O)N(C)CCC(=O)O)nc2)C(C)C)oc2ccc(OCC3CC3)cc12` (stereo not drawn) [Example A213, 3-[{[5-({1-[5-(cyclopropylmethoxy)-3-methyl-1-benzofuran-2-yl]-2-methylpropyl}amino)pyridin-2-yl]carbonyl}(methyl)amino]propanoic acid], the inhibition at 10 µM is 70%.
Take `COc1ccc2oc(C(Nc3ccc(C(=O)NCCC(=O)O)cc3)C3CCCCC3)cc2c1` (stereo not drawn) [Example A22, 3-{[(4-{[cyclohexyl(5-methoxy-1-benzofuran-2-yl)methyl]amino}phenyl)carbonyl]amino}propanoic acid]: the inhibition at 10 µM was 66%.
For the molecule `O=C(O)CCNC(=O)c1ccc(NC(c2cn(-c3ccccc3)nc2OCc2ccccc2)C2CCCCC2)cc1` (stereo not drawn) [Example 66, 3-({[4-({[3-(benzyloxy)-1-phenyl-1H-pyrazol-4-yl](cyclohexyl)methyl}amino)phenyl]carbonyl}amino)propanoic acid], the inhibition at 10 µM was 74%.
On to `Cc1c(C(Nc2ccc(C(=O)N(C)CCC(=O)O)cc2)C2CCCCC2)oc2cccnc12` (stereo not drawn) [Example A113, 3-{[(4-{[cyclohexyl(3-methylfuro[3,2-b]pyridin-2-yl)methyl]amino}phenyl)carbonyl](methyl)amino}propanoic acid], for which the inhibition at 10 µM came to 68%.
Regarding `Cc1c(C(Nc2ccc(C(=O)N(C)CCC(=O)O)cc2)C(C)C)oc2ccc(Oc3ccc(C(F)(F)F)cn3)cc12` (stereo not drawn) [Example A206, 3-{methyl[(4-{[2-methyl-1-(3-methyl-5-{[5-(trifluoromethyl)pyridin-2-yl]oxy}-1-benzofuran-2-yl)propyl]amino}phenyl)carbonyl]amino}propanoic acid], the inhibition at 10 µM amounted to 70%.
Regarding `Cc1sc2ccccc2c1C(Nc1ccc(C(=O)N(C)CCC(=O)O)cc1)C1CCCCC1` (stereo not drawn) [Example A9, 3-{[(4-{[cyclohexyl(2-methyl-1-benzothiophen-3-yl)methyl]amino}phenyl)carbonyl](methyl)amino}propanoic acid], the inhibition at 10 µM is 67%.
The same measure, in the same setting: to `CCc1oc2ccccc2c1C(Nc1ccc(C(=O)N(C)CCC(=O)O)cc1)C1CCCCC1` (stereo not drawn) [Example A26, 3-{[(4-{[cyclohexyl(2-ethyl-1-benzofuran-3-yl)methyl]amino}phenyl)carbonyl](methyl)amino}propanoic acid] belongs 64%; to `COCc1nn(-c2ccc(C(F)(F)F)cn2)cc1C(Nc1ccc(C(=O)NCCC(=O)O)cc1)C1CCCCC1` (stereo not drawn) [Example 29, 3-[({4-[(cyclohexyl{3-(methoxymethyl)-1-[5-(trifluoromethyl)pyridin-2-yl]-1H-pyrazol-4-yl}methyl)amino]phenyl}carbonyl)amino]propanoic acid], 77%; to `CCOc1cccc(-n2cc(C(CC(C)C)Nc3ccc(C(=O)NCCC(=O)O)cc3)c(CC)n2)c1` (stereo not drawn) [Example 86, 3-({[4-({1-[1-(3-ethoxyphenyl)-3-ethyl-1H-pyrazol-4-yl]-3-methylbutyl}amino)phenyl]carbonyl}amino)propanoic acid], 76%.
`Cc1nn(Cc2ccccc2)cc1C(Nc1ccc(C(=O)NCCC(=O)O)cc1)C1CCCCC1` (stereo not drawn) [Example 41, 3-{[(4-{[(1-benzyl-3-methyl-1H-pyrazol-4-yl)(cyclohexyl)methyl]amino}phenyl)carbonyl]amino}propanoic acid]: the inhibition at 10 µM amounted to 60%.
As for `CN(CCC(=O)O)C(=O)c1ccc(NC(c2nn(C)c3ccccc23)C2CCCCC2)cc1` (stereo not drawn) [Example A7, 3-{[(4-{[cyclohexyl(1-methyl-1H-indazol-3-yl)methyl]amino}phenyl)carbonyl](methyl)amino}propanoic acid], the inhibition at 10 µM was 60%.
Turning to `COc1ccccc1-n1cc(C(Nc2ccc(C(=O)N(C)CCC(=O)O)cc2)C2CCCCC2)c(C)n1` (stereo not drawn) [Example 72, 3-[{[4-({[1-(2-methoxyphenyl)-3-methyl-1H-pyrazol-4-yl](cyclohexyl)methyl}amino)phenyl]carbonyl}(methyl)amino]-propanoic acid], the inhibition at 10 µM was found to be 51%.
Regarding `Cc1c(C(CC(C)C)Nc2ccc(C(=O)NCCC(=O)O)cn2)sc2ccccc12` (stereo not drawn) [Example A36, 3-{[(6-{[3-methyl-1-(3-methyl-1-benzothiophen-2-yl)butyl]amino}pyridin-3-yl)carbonyl]amino}propanoic acid], the inhibition at 10 µM turned out to be 73%.
Take `Cc1c(C(Nc2ccc(C(=O)N(C)CCC(=O)O)cc2)C2CCCCC2)sc2cccnc12` (stereo not drawn) [Example A145, 3-{[(4-{[cyclohexyl(3-methylthieno[3,2-b]pyridin-2-yl)methyl]amino}phenyl)carbonyl](methyl)amino}propanoic acid]: the inhibition at 10 µM worked out at 76%.
In the case of `CCOc1cccc(-n2cc(C(Nc3ccc(C(=O)NCC(C)C(=O)O)cc3)C3CCCCC3)c(CC)n2)c1` (stereo not drawn) [Example 92, 3-({[4-({cyclohexyl[1-(3-ethoxyphenyl)-3-ethyl-1H-pyrazol-4-yl]methyl}amino)phenyl]carbonyl}amino)-2-methylpropanoic acid], the inhibition at 10 µM was determined as 56%.
On the same count and under the same terms, as for `CCCCCCC(Nc1ccc(C(=O)N(C)CCC(=O)O)cc1)c1oc2ccc(OC)cc2c1C` (stereo not drawn) [Example A119, 3-{[(4-{[1-(5-methoxy-3-methyl-1-benzofuran-2-yl)heptyl]amino}phenyl)carbonyl](methyl)amino}propanoic acid], the figure is 70%; as for `COc1cccc2cc(C(Nc3ccc(C(=O)NCCC(=O)O)cc3)C3CCCCC3)oc12` (stereo not drawn) [Example A20, 3-{[(4-{[cyclohexyl(7-methoxy-1-benzofuran-2-yl)methyl]amino}phenyl)carbonyl]amino}propanoic acid], 72%.
